Laboratory results reported in paper PMC3923778 (PLoS Currents, 2014).
Entries after “also recorded” stand apart in the source; their conditions may differ.

Key:
[1] = target: T1, NK3 receptor (Homo sapiens, UniProt P29371); assay: Cerep diversity panel screen at 10 µM; format: binding
T1 construct: Cerep (contract laboratory)
Procedure: (§1) Studies were conducted at Cerep (France)

[2] = test system: site 2 of the Na2+-channel; assay: Cerep diversity panel screen at 10 µM; format: binding
Procedure: as §1

[3] = test system: α2-adrenergic receptor; assay: Cerep diversity panel screen at 10 µM; format: binding
Procedure: as §1

[4] = test system: R6/2 hippocampal slices; assay: Electrophysiological evaluation in R6/2 hippocampal slices (MEA, fEPSP); set-up: species or system mouse
Procedure: Electrophysiology was conducted at Neuroservice SARL, France. All animals were group housed under environmentaly enriched conditions and used in accordance with European legislations for animal care. On the day of recording, 7-8 week old R6/2 or wild type littermate (WT) mice were decapitated without anaesthesia followed by rapid brain removal into ice-cold oxygenated buffer (in mM; saccharose, 250, KCl 2, NaH2PO4 1.2, MgCl2 7, CaCl2 0.5, NaHCO3 26, glucose 11). Hippocampal slices (350 μm thickness) were prepared with a MacIlwain tissue-chopper and incubated at room temperature (RT, 18 – 22 °C) and allowed to recover for at least 1 h prior to recording in oxygenated Artificial Cerebro-Spinal Fluid (ACSF) of the following composition: (in mM; NaCl, 126, KCl 3.5, NaH2PO4 1.2, MgCl2 1.3, CaCl2 2, NaHCO3 25, D-glucose 11, pH 7.2). For experiments, individual slices were transferred to a 3-dimensional 60 electrode MEA chip (Ayanda Biosystems, Lausanne, Switzerland) and continuously perfused with oxygenated (95% O2–5% CO2) ACSF at 37 °C at a rate of 3 mlmin^-1, allowing for complete solution exchange within the MEA chamber 20 s following solution switches (MEA chamber volume: ~1 mL).
For stimulation, one MEA electrode underlying the Schaeffer collaterals at the CA3/CA1 interface was chosen visually as the stimulating electrode. The stimulus consisted of a monopolar biphasic current pulse (negative for 60 μs and then positive for 60 μs) applied at a frequency of 0.03 Hz. Recordings of resultant field excitatory postsynaptic potentials (fEPSPs) from electrodes underlying the CA1 region were made using MultiChannel Systems MCS GmbH software (MC Stim, MS Rack) and hardware composed of a 4-channel stimulus generator and a 60-channel amplifier head-stage connected to a 60-channel A/D card (Reutlingen, Germany). […] Paired pulse facilitation (PPF) was then assessed at 40 % of the maximal fEPSP amplitude response (as defined from the I/O curve) by delivering two pulses to the stimulating electrode with decreasing inter-stimulus intervals (ISI of 300 ms, 200 ms, 100 ms, 50 ms, 25 ms). PPF was performed 4 times per slice, and the resultant 4 fEPSP amplitudes at a given ISI were averaged together. […]
For measurement of long term potentiation (LTP), basal fEPSPs were recorded at 0.03 Hz for ten minutes at 40 % of maximal FEPSP amplitude to verify the baseline stability. […] Potentiation of fEPSP amplitude was then monitored for an additional 60 minute period. […]
For each slice, the fEPSP values at each electrode recorded within the CA1 region were averaged to obtain a single fEPSP value per slice per timepoint. […] Data was analysed using Repeat Measure Two-way ANOVA followed by a post hoc Bonferroni test to analyse statistical significance of single data points using Prism 5.0 software. […]

[5] = test system: R6/2 mice; assay: Rotarod; format: in vivo, mouse; conditions: BID, ANOVA
Procedure: (§2) Motor function testing including open field and rear climbing tests were commenced at 4 weeks of age and continued at weeks 6, 8 and 12, for grip strength test at age weeks 4 and 12 and for rotarod at age weeks 4, 6 and 8. Compound treatment was started at 4 weeks of age after the baseline behavioral tests.
Mice were tested at age weeks 4, 6 and 8 over 3 consecutive days (Wed, Thu, Fri). Each daily session included a training trial of 5 min at 4 RPM on the rotarod apparatus (AccuScan Instruments, Columbus, USA). One hour later, the animals were tested for 3 consecutive accelerating trials of 6 min with the speed changing from 0 to 40 RPM over 360 seconds and an inter-trial interval at least 30 min. The latency to fall from the rod was recorded. Mice remaining on the rod for more than 360 s were removed and their time scored as 360 sec.
(§3) All values are presented as mean ± Standard Error of Mean (SEM), and differences are considered to be statistically significant at the p < 0.05 level. Statistical analysis was performed using StatsDirect statistical software. Differences between group means were analyzed by 1-way-ANOVA followed by Dunnett’s test (comparison to the control (=vehicle treated TG mice) group). The acquisition of the Cued two-choice swim test was analyzed using Fisher’s exact test.

[6] = test system: R6/2 mice; assay: Grip Strength; format: in vivo, mouse; set-up: key to Grip Strength: direction of significant change vs Vehicle-treated R6/2 mice: ▲: significant enhancement compared to Vehicle-treated R6/2 mice (One-way ANOVA, Dunnett’s post-hoc); ▼: significant impairment compared to Vehicle-treated R6/2 mice (One-way ANOVA, Dunnett’s post-hoc)
Procedure: as §2
Grip strength measurement was performed at age weeks 4 and 12. The mice were tested on Monday afternoons. Mice were taken to the experimental room and, one at a time, were placed on the grip-strength apparatus (San Diego Instruments, San Diego, USA) in such a way that the animal grabs a small mesh grip with its forepaws. The entire apparatus is placed on a table top for testing. Animals are lowered to the platform and then slowly pulled away from the handle by the tail until the animal releases the handle. The equipment automatically measures the strength of the animal’s grip in grams. Five scores were recorded per animal in consecutive sequence. Mice were returned to their home cage after testing.
as §3

[7] = Age Week 12, 30 mg/kg p.o., BID

T1 sequence (P29371 whole entry, species assumed): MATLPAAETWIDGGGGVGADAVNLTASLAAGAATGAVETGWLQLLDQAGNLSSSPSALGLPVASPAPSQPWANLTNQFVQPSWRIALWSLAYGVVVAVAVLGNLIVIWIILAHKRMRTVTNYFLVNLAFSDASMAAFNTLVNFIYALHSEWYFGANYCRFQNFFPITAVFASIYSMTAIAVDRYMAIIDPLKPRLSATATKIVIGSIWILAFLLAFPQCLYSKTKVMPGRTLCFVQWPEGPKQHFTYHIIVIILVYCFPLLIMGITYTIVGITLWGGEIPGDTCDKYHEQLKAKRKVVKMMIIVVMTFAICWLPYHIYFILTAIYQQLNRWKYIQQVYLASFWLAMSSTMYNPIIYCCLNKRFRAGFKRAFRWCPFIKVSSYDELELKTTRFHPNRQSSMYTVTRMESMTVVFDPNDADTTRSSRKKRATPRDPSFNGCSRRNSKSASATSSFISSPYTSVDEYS

Structure (SMILES): CN1C(=O)c2nc(Cc3ccc(C(F)(F)F)cc3)[nH]c2N2C1=N[C@H]1CCC[C@H]12 [SCH-51866, (+)-cis-5,6a,7,8,9,9a-hexahydro-2-[4-[trifluro-methyl]phenylmethyl]-5-methyl-cylopent[4,5]imidazo [2,1-b]purin-4(3H)one]
- inhibition at 10 µM [1]: 57%
- inhibition [2]: 66%
- inhibition [3]: 88%
- basal synaptic transmission (input/output characteristics) ([4]; 3 µM, R6/2 slices): no significant effect; also recorded: did not significantly reduce
- paired pulse facilitation (PPF) ([4]; 3 µM, R6/2 slices): restored R6/2 paired-pulse facilitation (PPF) to WT levels; also recorded: significantly restored to WT levels
- long-term potentiation (LTP) ([4]; 3 µM, R6/2 slices, vs ACSF alone): did not restore the deficit; also recorded: did not result in an amplitude of LTP significantly different
- electrophysiological parameters in hippocampal slices, overall ([4]; concentration sufficient to fully inhibit the PDE1 enzyme): does not improve
- Rotarod: p vs Vehicle-treated R6/2 mice ([5]; Age Week 4, 10 mg/kg p.o.): ANOVA: p=0.458
- Rotarod: p vs Vehicle-treated R6/2 mice ([5]; Age Week 4, 30 mg/kg p.o.): ANOVA: p=0.458
- Rotarod: p vs Vehicle-treated R6/2 mice ([5]; Age Week 6, 10 mg/kg p.o.): ANOVA: p=0.262
- Rotarod: p vs Vehicle-treated R6/2 mice ([5]; Age Week 6, 30 mg/kg p.o.): ANOVA: p=0.262
- Rotarod: p vs Vehicle-treated R6/2 mice ([5]; Age Week 8, 10 mg/kg p.o.): ANOVA: p=0.171
- Rotarod: p vs Vehicle-treated R6/2 mice ([5]; Age Week 8, 30 mg/kg p.o.): ANOVA: p=0.171
- Grip strength, effect in words ([6]; 30 mg/kg, 12 weeks of age, vs R6/2 vehicle group): improvement in grip strength; also recorded: positive effect in improving grip strength; also recorded: significantly improved over the R6/2 vehicle group
- Grip Strength: p vs Vehicle-treated R6/2 mice ([6]; Age Week 4, 10 mg/kg p.o., BID, ANOVA): ANOVA: p=0.612
- Grip Strength: p vs Vehicle-treated R6/2 mice ([6]; Age Week 4, 30 mg/kg p.o., BID, ANOVA): ANOVA: p=0.612
- Grip Strength: p vs Vehicle-treated R6/2 mice ([6]; Age Week 12, 10 mg/kg p.o., BID): p=0.860
- Grip Strength: direction of significant change vs Vehicle-treated R6/2 mice [6, 7]: ▲
- Grip Strength: p vs Vehicle-treated R6/2 mice [6, 7]: 0.006
